Source: patent publication US20250352590A1, “Functional postbiotic composition for homeostatic vaginal care” (Seed Health Inc., priority 2024, published 2025)

Tests used:
[1] = system: EpiVaginal (VEC-100) 3-D tissues; assay: Barrier integrity by transepithelial electrical resistance (TEER) in EpiVaginal tissues; assay type: cell-based; details: 24 hr exposure; for TEER avg. (% of VC): tissues in triplicate, normalized to average TEER of vehicle control VC
Method: (§1) EpiVaginal (VEC-100) 3-D tissues, produced by MatTek Corporation, were used to evaluate eight test conditions plus a positive control known to have negative effects on tissue viability and barrier function (nonoxynol-9); the conditions tested are given in Table 3 below. Barrier integrity was measured at baseline, and tissues were treated in triplicate with test articles for 24 hours. Three tissues were left untreated to serve as negative control (NC); three tissues were treated with 4% nonoxynol-9 to serve as positive control (PC); and three tissues were dosed with media to serve as vehicle control (VC). At the end of 24 hr exposure to the test articles, barrier integrity was measured using transepithelial electrical resistance (TEER) and two tissues were used to assess tissue viability with the MTT assay. From each treatment group, one tissue was fixed in 10% formalin and processed for H&E staining for histological analysis.
Throughout this Example and Example 8 below, “VS-01” refers to a consortium of three Lactobacillus crispatus strains: LUCA011 (ATCC Accession Deposit No. PTA-127214) at a concentration of 3.70·10^10 CFU/g, LUCA009 (ATCC Accession Deposit No. PTA-127213) at a concentration of 8.60·10^9 CFU/g, and LUCA103 (ATCC Accession Deposit No. PTA-127218) at a concentration of 2.50·10^10 CFU/g. A stock of 10^6 CFU/mL of the combined strains was used for testing. A comparator strain, L. crispatus ATCC 33197, was sourced from the American Type Culture Collection, and it was determined by bioinformatic analysis that the genome of this strain had between 99.0% and 99.2% average nucleotide identity (ANI) with each of the three VS-01 strains.
The concentration of VS-01 most relevant to in vivo exposure in the VEC-100 model (10^6 CFU/mL) was determined using two different approaches: (1) Comparison of the exposure per unit area of vaginal surface area between VS-01 in vivo and VS-01 in the VEC-100 model. As known from the literature, the average surface area of the human vagina ranges from 65.73 to 107.07 cm^2 with a mean of 87.46 cm^2 and a standard deviation of 7.80 cm^2. If an 850 mg tablet as described in Example 3 instantaneously dissolved, the estimated coverage would be 9.7 mg/cm^2 (850 mg/87.46 cm^2). This most closely corresponds to a 1:100 dilution of the tablet and can be considered an upper bound, given that the tablet dissolves slowly over a 24-hour period. (2)
Comparison of the ratio of L. crispatus cells to vaginal epithelial cells in vivo and in the VEC-100 model. […] The Mattek model contains between about 350,000 and about 500,000 cells at a depth of three to five layers. If 100,000 epithelial cells are exposed at the surface, exposure to 10^6 bacterial cells produces a reasonable estimate of a 10:1 bacterial cell/epithelial cell ratio.
An estimate of the concentration of D-lactate most relevant to in vivo exposure was obtained considering tablet dissolution kinetics. Tablets as described in Example 3 are slow-release formulations, dissolving over the course of […]. The volume of cervicovaginal fluid (CVF) present in the vagina is variable, ranging from about 1 mL to about 4 mL, with a discharge rate of about 2 mL to about 5 mL over 24 hours; thus, the dissolution rate of a tablet as described in Example 3 would be about 71 mg/hour. D-lactate concentrations of tablets as described in Example 3 range from about 34 mg/tablet to about 44 mg/tablet. Estimating that 8.4% of an 850 mg tablet dissolves per hour (71 mg/hour divided by 850 mg/tablet) gives an estimated in vivo D-lactate concentration range of 31.7 mM to 40.44 mM D-lactate. Therefore, testing 10 mM and 100 mM D-lactate in this Example covers the physiological range of estimated exposure given the expected variability in the exact concentration of D-lactate per tablet. […]

[2] = system: EpiVaginal (VEC-100) 3-D tissues; assay: Tissue viability by MTT assay in EpiVaginal tissues; assay type: cell-based; details: 24 hr exposure
Method: as §1

| Molecule | Barrier integrity / TEER, result in words [1] | TEER avg. (% of VC) [1] | Cytotoxicity / tissue viability (MTT), result in words [2] | TEER vs NC ([1]; relative to untreated negative control NC) | TEER vs VC ([1]; relative to vehicle control VC) |
| --- | --- | --- | --- | --- | --- |
| C[C@@H](O)C(=O)O [D-lactate] | did not result in significant improvements in TEER over VC | – | – | – | – |
| C[C@@H](O)C(=O)O [TA6, D-lactate] | – | 128.4 % of VC | – | – | – |
| nonoxynol-9 [PC] | barrier disruption | 0.6 % of VC | severe cytotoxicity | 0.2% | 0.6% |
| C[C@@H](O)C(=O)O [TA7, D-lactate] | – | 114.8 % of VC | – | – | – |
